Where a name gives a salt, the structure may show the parent alone.
Tested on: mice
Test: Neuropharmacological Assay (SmartCube): automated behavioral signature of compound-treated mice compared with a database of reference drug classes
Format: in vivo
Conditions: for minimal effective dose: Mus musculus, ip, read-out: MED; for minimal effective dose / MED: minimal effective dose: dose having 45% or more total activity in SmartCube, i.p., if only one dose was tested, that dose is shown; for AD / AG / AN / AP / AX / CE / HL / MS / PS / SH / UK: SmartCube probability class, 3.0 mg/kg dose, i.p. 15 min before the behavioral test
In short: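 Compounds in N-methyl-2-pyrrolidone/polyethylene glycol/propylene glycol were given i.p. 15 min before testing, at 3 doses; values shown are for 3.0 mg/kg. Video-captured behaviour was matched by algorithm against reference drug classes, giving a probability per class. MED: lowest dose reaching ≥45% total activity.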

SMILES | minimal effective dose | AD | AG | AN | AP | AX | CE | HL | MS | PS | SH | UK (hydrochloride, 3 mg/kg) | AP (hydrochloride, 3 mg/kg) | MED (hydrochloride) | AX (hydrochloride, 3 mg/kg) | further results
CCC1(NC)CCc2sccc2C1 (single isomer, unassigned) [Compound 291, 5-ethyl-N-methyl-6,7-dihydro-4H-benzothiophen-5-amine hydrochloride] | > 3 mg/kg | ND (^ <4%) | ND (^ <4%) | ND (^ <4%) | ND (^ <4%) | ND (^ <4%) | ND (^ <4%) | ND (^ <4%) | ND (^ <4%) | ND (^ <4%) | ND (^ <4%) | + (≥4%) |  |  |  | 
CCC1(NC)CCc2sccc2C1 (single isomer, unassigned) [Compound 292, 5-ethyl-N-methyl-6,7-dihydro-4H-benzothiophen-5-amine hydrochloride] |  | ND (^ <4%) | ND (^ <4%) | ND (^ <4%) | ND (^ <4%) | ND (^ <4%) | ND (^ <4%) | ND (^ <4%) | ND (^ <4%) | ND (^ <4%) | ND (^ <4%) | ++ (≥24%) |  |  |  | MED: >3 mpk
CNC1COc2sccc2C1 (single isomer, unassigned) [Compound 293, N-methyl-3,4-dihydro-2H-thieno[2,3-b]pyran-3-amine formate salt] | < 3 mg/kg | ND (^ <4%) | ND (^ <4%) | ND (^ <4%) |  | ND (^ <4%) | ND (^ <4%) | ND (^ <4%) | ND (^ <4%) | ND (^ <4%) | ND (^ <4%) |  |  |  |  | AP (formate salt, 3 mg/kg): ++++ (≥74%); UK (formate salt, 3 mg/kg): ND (^ <4%)
CNC1COc2sccc2C1 (single isomer, unassigned) [Compound 294, N-methyl-3,4-dihydro-2H-thieno[2,3-b]pyran-3-amine formate salt] |  | ND (^ <4%) | ND (^ <4%) | ND (^ <4%) |  | ND (^ <4%) | ND (^ <4%) | ND (^ <4%) | ND (^ <4%) | ND (^ <4%) | ND (^ <4%) |  |  |  |  | AP (formate salt, 3 mg/kg): ND (^ <4%); UK (formate salt, 3 mg/kg): + (≥4%); MED (formate salt): >3 mpk
Cc1csc2c1OCC(N)C2 (single isomer, unassigned) [Compound 295, 3-methyl-6,7-dihydro-5H-thieno[3,2-b]pyran-6-amine hydrochloride] | 3 mg/kg | ND (^ <4%) | ND (^ <4%) | ND (^ <4%) |  | ND (^ <4%) | ND (^ <4%) | ND (^ <4%) | ND (^ <4%) | ND (^ <4%) | ND (^ <4%) | ND (^ <4%) | +++ (≥49%) |  |  | 
Cc1csc2c1OCC(N)C2 (single isomer, unassigned) [Compound 296, 3-methyl-6,7-dihydro-5H-thieno[3,2-b]pyran-6-amine hydrochloride] |  | ND (^ <4%) | ND (^ <4%) | ND (^ <4%) |  | ND (^ <4%) | ND (^ <4%) | ND (^ <4%) | ND (^ <4%) | ND (^ <4%) | ND (^ <4%) | + (≥4%) | ND (^ <4%) | >3 mpk |  | 
CNC1COc2c(C)csc2C1 (single isomer, unassigned) [Compound 297, N, 3-dimethyl-6,7-dihydro-5H-thieno[3,2-b]pyran-6-amine hydrochloride] | 3 mg/kg | ND (^ <4%) | ND (^ <4%) | ND (^ <4%) | ND (^ <4%) |  | ND (^ <4%) | ND (^ <4%) | ND (^ <4%) | ND (^ <4%) | ND (^ <4%) |  |  |  | ND (^ <4%) | UK: ND (^ <4%)
CNC1COc2c(C)csc2C1 (single isomer, unassigned) [Compound 298, N, 3-dimethyl-6,7-dihydro-5H-thieno[3,2-b]pyran-6-amine hydrochloride] |  | ND (^ <4%) | ND (^ <4%) | ND (^ <4%) | ND (^ <4%) |  | ND (^ <4%) | ND (^ <4%) | ND (^ <4%) | ND (^ <4%) | ND (^ <4%) |  |  |  | +++ (≥49%) | UK: ND (^ <4%); MED: 3 mpk
CNC1COc2c(C(F)(F)F)csc2C1 (single isomer, unassigned) [Compound 309, N-methyl-3-(trifluoromethyl)-6,7-dihydro-5H-thieno[3,2-b]pyran-6-amine hydrochloride] |  | ND (^ <4%) | ND (^ <4%) | ND (^ <4%) | ND (^ <4%) | ND (^ <4%) | ND (^ <4%) | ND (^ <4%) | ND (^ <4%) | ND (^ <4%) | ND (^ <4%) | ND (^ <4%) |  | 1 mpk |  | 
CNC1COc2c(C(F)(F)F)csc2C1 (single isomer, unassigned) [Compound 310, N-methyl-3-(trifluoromethyl)-6,7-dihydro-5H-thieno[3,2-b]pyran-6-amine hydrochloride] |  | ND (^ <4%) | ND (^ <4%) | ND (^ <4%) | ND (^ <4%) | ND (^ <4%) | ND (^ <4%) | ND (^ <4%) | ND (^ <4%) | ND (^ <4%) | ND (^ <4%) | ++ (≥24%) |  | >3 mpk |  | 
N#Cc1scc2c1CC(N)CC2 (single isomer, unassigned) [Compound 312, 6-amino-4,5,6,7-tetrahydro-2-benzothiophene-1-carbonitrile hydrochloride] | 3 mg/kg | ND (^ <4%) | ND (^ <4%) | ND (^ <4%) | ND (^ <4%) | ND (^ <4%) | ND (^ <4%) | ND (^ <4%) | ND (^ <4%) | ND (^ <4%) | ND (^ <4%) | +++ (≥49%) |  |  |  | 
N#Cc1scc2c1CC(N)CC2 (single isomer, unassigned) [Compound 313, 6-amino-4,5,6,7-tetrahydro-2-benzothiophene-1-carbonitrile hydrochloride] |  | ND (^ <4%) | ND (^ <4%) | ND (^ <4%) | ND (^ <4%) | ND (^ <4%) | ND (^ <4%) | ND (^ <4%) | ND (^ <4%) | ND (^ <4%) | ND (^ <4%) | + (≥4%) |  | >3 mpk |  | 
CNC1Cc2scc(C(F)(F)F)c2C1 (single isomer, unassigned) [Compound 314, N-methyl-3-(trifluoromethyl)-5,6-dihydro-4H-cyclopenta[b]thiophen-5-amine hydrochloride] | > 3 mg/kg | ND (^ <4%) | ND (^ <4%) | ND (^ <4%) |  |  | ND (^ <4%) | ND (^ <4%) | ND (^ <4%) | ND (^ <4%) | ND (^ <4%) | + (≥4%) | ND (^ <4%) |  | ND (^ <4%) | 
CNC1Cc2scc(C(F)(F)F)c2C1 (single isomer, unassigned) [Compound 315, N-methyl-3-(trifluoromethyl)-5,6-dihydro-4H-cyclopenta[b]thiophen-5-amine hydrochloride] |  | ND (^ <4%) | ND (^ <4%) | ND (^ <4%) |  |  | ND (^ <4%) | ND (^ <4%) | ND (^ <4%) | ND (^ <4%) | ND (^ <4%) | ND (^ <4%) | + (≥4%) | 3 mpk | ++++ (≥74%) | 
CNC1Cc2scc(C)c2C1 (single isomer, unassigned) [Compound 316, N, 3-dimethyl-5,6-dihydro-4H-cyclopenta[b]thiophen-5-amine hydrochloride] | 3 mg/kg | ND (^ <4%) | ND (^ <4%) | ND (^ <4%) |  |  |  | ND (^ <4%) | ND (^ <4%) | ND (^ <4%) | ND (^ <4%) |  | ++++ (≥74%) |  | ND (^ <4%) | UK: ND (^ <4%); CE (hydrochloride, 3 mg/kg): ND (^ <4%)
CNC1Cc2scc(C)c2C1 (single isomer, unassigned) [Compound 317, N, 3-dimethyl-5,6-dihydro-4H-cyclopenta[b]thiophen-5-amine hydrochloride] |  | ND (^ <4%) | ND (^ <4%) | ND (^ <4%) |  |  |  | ND (^ <4%) | ND (^ <4%) | ND (^ <4%) | ND (^ <4%) |  | + (≥4%) |  | +++ (≥49%) | UK: ND (^ <4%); CE (hydrochloride, 3 mg/kg): + (≥4%); MED: 3 mpk

Reference: patent US20260274814A1, “THIENYL COMPOUNDS FOR THE TREATMENT OF A CENTRAL NERVOUS SYSTEM DISEASE OR DISORDER” (Coreterra Therapeutics, Inc., priority 2023, published 2026)
